Laboratory results from patent publication US20240218066A1, “USE OF ANTI-PD-1 ANTIBODY IN COMBINATION WITH FIRST-LINE CHEMOTHERAPY IN TREATMENT OF ADVANCED NON-SMALL CELL LUNG CANCER” (SHANGHAI JUNSHI BIOSCIENCES CO., LTD., priority 2021, published 2024).

Assays:
Format in all cases: in vivo, human
[1] = system: patients with untreated advanced NSCLC; test: Phase III clinical study, efficacy assessed by the BIRC according to RECIST 1.1; parameters: reduction of the risk of progression or death, compared to standard chemotherapy / increase of PFS rate at 6 months compared to control group / increase of PFS rate at 12 months compared to control group / increase in ORR compared to control group: concentration or dose not given beside the values
Procedure: (§1) About 450 patients with advanced NSCLC not accompanied by EGFR-sensitive mutations and ALK fusions were randomly divided into two groups according to a 2:1 ratio, with the test group receiving toripalimab in combination with first-line standard chemotherapy and the control group receiving placebo in combination with first-line standard chemotherapy. Stratification was performed according to PD-L1 expression (TC≥1% vs TC<1%), smoking status (frequent smoking vs no smoking or little smoking), and pathological type (squamous cell carcinoma vs non-squamous cell carcinoma).
(§2) After randomization, the patients were subjected to treatment in the induction stage for 4-6 cycles, during which the patients received toripalimab/placebo+first-line standard chemotherapy. After the induction stage was over, the patients were subjected to treatment in the maintenance stage, during which patients with squamous cell carcinoma continued to receive toripalimab/placebo treatment until progressive disease, and patients with non-squamous cell carcinoma continued to receive toripalimab/placebo+pemetrexed treatment until progressive disease.
Tumor assessments were performed once every 6 weeks for the first 12 months of the study stage according to RECIST 1.1 and iRECIST; after 12 months, tumor assessments were performed every 9 weeks until progressive disease, initiation of a new anti-tumor therapy, intolerable toxicity, withdrawal of informed consent or death, 2 years of treatment with toripalimab, or other reasons as specified in the protocol, whichever occurred first.
Eligible subjects must (1) be patients with histologically and/or cytologically confirmed locally advanced (stage IIIB or IIIC) and stage IV non-small cell lung cancer that is inoperable and cannot receive radical concurrent chemoradiotherapy; (2) have at least one measurable lesion (according to RECIST 1.1); (3) have not received any systemic treatment (patients with recurrence more than 6 months after completion of prior neoadjuvant/adjuvant therapy may also be enrolled); (4) be aged between 18 and 75 years; (5) have ECOG of 0-1; (6) have an expected survival of ≥3 months; and (7) be available to provide tissue specimens for PD-L1 testing.
(§3) Unless otherwise specified, the efficacy analysis was based on the ITT set, which was analyzed by groups according to the treatment regimen to which patients were assigned at randomization.
The progression-free survival rate and median progression-free survival of the JS001+first-line standard treatment group and the placebo+first-line standard treatment group at different time points after the start of treatment were estimated by the Kaplan-Meier method, and Kaplan-Meier curves were plotted. The 95% confidence interval for progression-free survival rate at different time points (6 months and 1 year) was estimated using the Greenwood formula. The 95% confidence interval for median progression-free survival was estimated using the Brookmeyer-Crowley method where the log-log function conversion was used to reach normal approximation. Statistical test was performed on the inter-group difference by a stratified log-rank method for the total population. Statistical test was performed on the inter-group difference by a non-stratified log-rank method for the subpopulations. A stratified COX proportional hazards model was used to estimate the inter-group hazard ratio (HR) and the corresponding 95% confidence interval, and the tied events were processed by an exact method. Stratification analysis was performed using 3 stratification factors in the randomization process, including: (1) PD-L1 expression (TC≥1% vs TC<1%); (2) smoking status (frequent smoking vs no smoking or little smoking); and (3) pathological type (squamous cell carcinoma vs non-squamous cell carcinoma).
For analysis of secondary efficacy endpoints OS, DOR, and TTR, the method described above as applied to the primary efficacy endpoint PFS was used. […]

[2] = system: patients with untreated advanced NSCLC; test: Phase III clinical study, overall survival (OS)
Procedure: as §1, §2, §3
For analysis of secondary efficacy endpoints OS, DOR, and TTR, the method described above as applied to the primary efficacy endpoint PFS was used. For ORR and DCR, the percentage of patients in each treatment group was calculated, and their 95% confidence intervals were calculated using the Clopper-Pearson method. The nominal P values for inter-group comparison were calculated using the Cochran-Mantel-Haenszel method considering randomization stratification factors that were the same as the primary efficacy analysis, and the 95% CI for the inter-group rate differences was estimated.

[3] = system: patients with untreated advanced NSCLC; test: Phase III clinical study, biomarker analysis (WES, TMB, gene mutations)
Procedure: As of Oct. 31, 2021, whole exome sequencing (WES) was performed on tumor biopsies and matched peripheral blood from 394 patients.
Tumor mutation burden (TMB) was determined by analyzing somatic mutations within coding regions of the human genome. The median TMB in each group was 6.6 mutations per million base pairs (Mb). Tumor tissue from 122 (26.2%) patients had more than 10 mutations/Mb, 72.1% of which was also PD-L1 TC≥1% (see FIG. 6a). […] However, compared to TMB-L (i.e., low TMB) patients (TMB<10 mutations/Mb). TMB-H patients had better PFS in the toripalimab group than in the placebo group (interaction P=0.026) (see FIGS. 7a and 7b).
Gene set enrichment analysis was performed on the relevant genes to identify over-represented biological pathways. […] In addition, patients with alterations in the IL-7 signaling pathway (HGF, IRS1, IRS2, and SMARCA4) or chromatin remodeling SWI/SNF complex (SMARCA4, SMARCA2, and PBRM1) also had better PFS results from combination therapy with toripalimab (see FIGS. 12-13).

[4] = patients with non-squamous cell carcinoma
[5] = patients with squamous cell carcinoma

JS001 + standard first-line chemotherapy: toripalimab 240 mg Q3W plus albumin-bound paclitaxel+carboplatin (squamous) or pemetrexed+cisplatin/carboplatin (non-squamous)
PFS rate at 6 months ([1]; ITT): 65.3% | PFS rate at 12 months ([1]; ITT): 38.9% | increase of PFS rate at 6 months compared to control group ([1]; ITT): 16% | increase of PFS rate at 12 months compared to control group ([1]; ITT): 22.7% | HR for PFS (test vs control) ([1]; ITT population): 0.61 | PFS prolonged by, compared to standard chemotherapy ([1]; ITT population): 2.5 months | reduction of the risk of progression or death, compared to standard chemotherapy ([1]; ITT population): 39% | median PFS ([1]; ITT population, RECIST 1.1): 8.3 months | Best overall response: Complete response (CR) ([1]; non-squamous cell carcinoma): 3 (1.9) N (%) | Best overall response: Deletion ([1]; non-squamous cell carcinoma): 8 (4.9) N (%) | Best overall response: Non-complete response/non-progressive disease (Non CR/Non PD) ([1]; non-squamous cell carcinoma): 0 N (%) | Best overall response: Not evaluable (NE) ([1]; non-squamous cell carcinoma): 0 N (%) | Best overall response: Partial response (PR) ([1]; non-squamous cell carcinoma): 94 (58.0) N (%) | Best overall response: Progressive disease (PD) ([1]; non-squamous cell carcinoma): 8 (4.9) N (%) | Duration of response (DOR), Median (95% confidence interval) ([1]; non-squamous cell carcinoma): NE (6.9, NE) | Objective response rate (ORR) ([1]; non-squamous cell carcinoma): 97 (59.9) N (%) | DCR ([1]; overall population): 90.9% | increase in ORR compared to control group ([1]; overall population): 20.8% | ORR ([1]; overall population, RECIST v1.1): 65.7% | HR for PFS (test vs control) [1, 4]: 0.55 | ORR [1, 4]: 59.9% | increase in ORR compared to control group [1, 4]: 27.4% | median PFS [1, 4]: 10.3 months | HR for PFS (test vs control) [1, 5]: 0.63 | ORR [1, 5]: 72.1% | increase in ORR compared to control group [1, 5]: 13.3% | median PFS [1, 5]: 6.9 months | Best overall response: Complete response (CR) ([1]; squamous cell carcinoma): 0 N (%) | Best overall response: Deletion ([1]; squamous cell carcinoma): 8 (5.4) N (%) | Best overall response: Non-complete response/non-progressive disease (Non CR/Non PD) ([1]; squamous cell carcinoma): 1 (0.7) N (%) | Best overall response: Not evaluable (NE) ([1]; squamous cell carcinoma): 0 N (%) | Best overall response: Partial response (PR) ([1]; squamous cell carcinoma): 106 (72.1) N (%) | Best overall response: Progressive disease (PD) ([1]; squamous cell carcinoma): 3 (2.0) N (%) | Duration of response (DOR), Median (95% confidence interval) ([1]; squamous cell carcinoma): 5.7 (5.2, 9.5) | Objective response rate (ORR) ([1]; squamous cell carcinoma): 106 (72.1) N (%) | HR for OS (test vs control) ([2]; ITT population): 0.81 | median OS ([2]; ITT population, as of Mar. 11, 2021, OS data not mature): 21.0 months | deaths reported ([2]; as of Mar. 11, 2021, median follow-up 9.82 months): 25.6% | HR for OS (test vs control) [2, 4]: 0.56 | HR for OS (test vs control) [2, 5]: 1.23 | median OS [2, 5]: 21.0 months | response rate (ORR) ([3]; ITT population, as of Oct. 31, 2021): 65.7% | ORR ([3]; TMB-H patients (TMB≥10 mutations/Mb), as of Oct. 31, 2021): 72.7% | median PFS ([3]; patients carrying FA/PI3K/Akt pathway mutations): 8.9 months | median PFS ([3]; patients carrying the SMARCA4 mutation (n=48), especially non-squamous cell subgroup (n=33)): 9.9 months
